Measurements taken from EP1501797B1, “3-(SUBSTITUTED AMINO)-1H-INDOLE-2-CARBOXYLIC ACID ESTER AND 3-(SUBSTITUTED AMINO)-BENZO[B]THIOPHENE-2-CARBOXYLIC ACID ESTER DERIVATIVES AS INTERLEUKIN-4 GENE EXPRESSION INHIBITORS” (Aventis Pharmaceuticals Inc., priority 2002, dated 2003).
“And” between values parts separate entries of the source, which are not always exact repeats. Identical values can stand only once.

Key:
[1] = test system: IL-4; assay: Human primary Th2 cells, anti-CD3/anti-CD28 activated, IL-4 ELISA; format: cell-based
Experimental: Briefly, CD4^+CD45RA^+ T cells, isolated from donor peripheral blood mononuclear cells of healthy donors, are educated in the presence of anti-CD3/CD28 antibodies and various growth factors to obtain either a Thl-like or Th2-like phenotypes as determined by the known cytokine profiles of these two cell types.
Peripheral blood mononuclear cells (PBMC) are prepared from human blood by Ficoll-Hypacque (Pharmacia). The cells are washed two times in Hanks balanced salt solution (HBSS) and counted.
Naive T cells (CD4^+/CD45RA ) are prepared by negative selection method using following antibodies and Dynabeads: anti-CD8, anti-HLA-DR, (where HLA means human leucocyte antigen) anti-CD14, anti-CD16, anti-CD19, anti-CD45RO antibodies (all from R&D Systems, 1-2 µg/ml) are added to the cells, and the cells are kept on ice for 30 min. The cells are washed two times in HBSS, and goat anti- mouse Ig-beads, (bead:target ratio, 5:1) are added. The cells and beads are slowly rotated at 4°C for 20 min. (following the protocol supplied from Dynal). The supernatant is removed and fresh goat anti-mouse Ig-beads are added to the supernatant, which is slowly rotated at 4°C for 20 min. The cells are counted and phenotypically characterized by flow cytometric analysis.
CD4^+/CD45RA^+ cells at a density of 10^6/ml in RPMI, is prepared and added to RPMI medium containing 10% Hyclone serum/ glutamine and 1-2 µg/ml anti-CD28 Ab. The cells are split in two aliquots. For Th1 cells: anti-IL-4 Ab (1-2 µg/ml), IFN-γ (1 µg/ml, or 5000 units/ml) are added to the wells. For Th2 cells: IL-4 (100-200 ng/ml), anti-IFN-γ neutralizing Ab (1-2 µg/ml), anti-IL-12 neutralizing Ab (1-2 µg/ml) are added into the wells. […] The cells are transferred to fresh wells and grown in 200 units/ml IL-2 for 2 weeks by feeding them every other day with IL-2 containing medium and splitting the cultures 1:2 or 1:3 as needed. The degree of polarization is determined by intracellular staining of cells with anti-IFN-γ and anti-IL-4 antibodies from Pharmingen, and using flow cytometry from Becton Dickinson (BD), according to manufacturers description. The cells are stimulated with PHA and alloantigens at day 14 and 28 as described below. Eight days after the second allostimulation the cells can be used for compound screening or frozen for future use. For compound testing, large quantities of Th1 and Th2 cells derived from a given donor (NYTh1 and NYTh2) were expanded and frozen as aliquots in liquid nitrogen. The cells are thawed and cultured as and when needed. The thawed cells are stimulated with alloantigen/PHA combination. The cells are used for compound screening after 8-10 days in culture.
Re-stimulation by allogeneic cells: Human PBMCs, to be used as alloantigens, are isolated from freshly drawn blood by Ficoll separation. […] Cells are counted and diluted to a final concentration of 2 x 10^6/ml in medium containing 10 µg/ml PHA and 200 units/ml IL-2.
Ninetysix well Falcon tissue culture plates (Fisher Scientific) are coated with 100 microliters per well of 10 µg/ml anti-CD3 (PharMingen) antibody in phosphate buffered saline (PBS) and stored at 4°C one day before the experiment.
On the day of assay, anti-CD3 antibody coated plates are washed with PBS once to remove all soluble anti-CD3 antibody. […] All compounds and controls are assayed in triplicates.

[2] = test system: IgG2a Anti-DNP Antibody; assay: In vivo model of humoral immunity in mice (DNP-KLH), IgG2a anti-DNP antibody
Experimental: Female Balb/c mice, each weighing approximately 20 to 25 grams each, aged 5 to 8 weeks are used. Each experiment uses 30 mice.
The antigen for immunization is 2,4-dinitrophenyl (DNP) or 2,4,6-trinitrophenyl (TNP) conjugated to keyhole limpet haemocyanin (KLH). The antigen (100 µg/mouse) is adsorbed to an adjuvant (colloidal aluminum hydroxide) and given i.p. to animal in a total volume of 0.2-0.3 ml.
Animals are randomly divided into 5 groups of 6 mice each. Group 1 is a positive control group, Groups 2, 3, and 4 are test compound groups, and Group 5 is a vehicle control group. Compounds may be given by i.n., i.p., p.o., s.c., i.m. or i.v. administration. […] On day 8 after the immunization, mice are bled by cardiac puncture under anesthesia (isoflurane), and the serum samples are stored at -20°C until required for antibody analysis. The anesthetized animals are euthanized with overdosage of sodium pentobarbital at the end of experiment. Statistical analysis of the data are performed using ANOVA.
Mice are immunized with a hapten carrier conjugate, DNP-KLH, and anti-DNP antibody levels are determined in a isotype specific manner as described above. […]

[3] = test system: Swiss 3T3 fibroblasts; assay: in vitro
Experimental: (§1) A third assay utilized in the present invention involves an in vitro cytotoxicity assay. This assay is used to further characterize the compounds in order to assess toxic activities of compounds on contact inhibited, non-dividing 3T3 fibroblasts. Other toxicity assays may be used.
(§2) Contact inhibited Swiss 3T3 fibroblasts are purchased from ATCC. The cells are maintained in 1640 RPMI supplemented with 10% fetal bovine serum (Gibco).
(§3) On day of assay, cells are detached from flasks by trypsinization, washed in medium and counted. 100 microliters of 2.5 x 10^4 cells per well are plated into Falcon brand 96 well tissue culture plates and cells incubated at 37°C in presence of 5% CO2 for 2 days or until confluent.
(§4) […] All compound dilutions are assayed in triplicate. […] Cells are returned to the incubator for 2 days.
(§5) After 2 day incubation, the 3T3 cells are assayed for viability using an MTS Assay Kit (Promega). Media is added to blank wells for background calculations. After 2 hours incubation in kit reagent, the optical density at 490 nm for each compound and control is determined by plate reader.
(§6) Results are expressed as percent cytotoxicity, i.e., (mean OD of compound wells - background OD)/ (mean OD of controls - background).
(§7) Note that starting concentration of CsA was 1 µM. […]

[4] = in vitro; conditions: mouse, swiss 3t3 fibroblasts
Experimental: as §1, §2, §3, §4, §5, §6, §7

## O=C(O)c1[nH]c2ccccc2c1Nc1ccncc1 [Example 28, 3-(4-Pyridinylamino)-1H-indole-2-carboxylic acid]
[1]; 10 µM, 18 hrs, ELISA of culture supernatants, stimulated control 625.0+/- 23
  IL-4 PROTEIN Exp #2: 286.2 ± 19 pg/mL
[1]; Homo sapiens, 0.01 µM, 48 hr, read-out: IL-4 (% control) mean
  activity at 0.01 µM: 102%
[1]; Homo sapiens, 0.03 µM, 48 hr, read-out: IL-4 (% control) mean
  activity at 0.03 µM: 65.3%
[1]; Homo sapiens, 0.1 µM, 48 hr, read-out: IL-4 (% control) mean
  activity at 0.1 µM: 59.8%
[1]; Homo sapiens, 0.3 µM, 48 hr, read-out: IL-4 (% control) mean
  activity at 0.3 µM: 45%
[1]; Homo sapiens, 1 µM, 48 hr, read-out: IL-4 (% control) mean
  activity at 1 µM: 42.5%
[1]; Homo sapiens, 3 µM, 48 hr, read-out: IL-4 (% control) mean
  activity at 3 µM: 36.4%
[1]; Homo sapiens, 10 µM, 48 hr, read-out: IL-4 (% control) mean
  activity at 10 µM: 30.8%
[1]; Human primary Th2 cells, combined data from 10 different experiments
  IC50: 240 nM
[1]; Human primary Th2 cells, ratio of IC50
  IFN-γ/ IL-4 Ratio: > 41
[2]; individual animals 1-6, dose not stated
  IgG2a Anti-DNP Antibody Titer: 30.59 and 38.60 and 14.09 and 17.45 and 30.21 and 27.98
[2]; vehicle 30.47 +/-2.37, dose not stated
  IgG2a Anti-DNP Antibody Titer Mean+/-SE: 26.49 +/-3.72
[2]; versus vehicle
  IgG2a Anti-DNP Antibody Titer Inhibition: 13%
[3]
  toxic effects on the viability of quiescent 3T3 cells (in words): no toxic effects
[4]
  viability at 48 h, 0.001 µM: 124%
  viability at 48 h, 0.01 µM: 112%
  viability at 48 h, 0.03 µM: 111%
  viability at 48 h, 0.1 µM: 111%
  viability at 48 h, 3 µM: 110%
  viability at 48 h, 10 µM: 99.1%
